In patent publication US9169254B2, “Spiroimidazolone derivative” (Chugai Seiyaku Kabushiki Kaisha, priority 2009, dated 2015):

The compounds below were run against T1, human PTH1 receptor (Homo sapiens, UniProt Q03431) (assay: In vitro cAMP signal activity in HKRK-B7 cells (LLC-PK1 cells overexpressing the human PTH1 receptor)). Details: HKRK-B7 cells; compound at 1×10^−3 M; cAMP produced as percentage of that produced by hPTH(1-34) at 100 nM.
T1 sequence (Q03431 27-593): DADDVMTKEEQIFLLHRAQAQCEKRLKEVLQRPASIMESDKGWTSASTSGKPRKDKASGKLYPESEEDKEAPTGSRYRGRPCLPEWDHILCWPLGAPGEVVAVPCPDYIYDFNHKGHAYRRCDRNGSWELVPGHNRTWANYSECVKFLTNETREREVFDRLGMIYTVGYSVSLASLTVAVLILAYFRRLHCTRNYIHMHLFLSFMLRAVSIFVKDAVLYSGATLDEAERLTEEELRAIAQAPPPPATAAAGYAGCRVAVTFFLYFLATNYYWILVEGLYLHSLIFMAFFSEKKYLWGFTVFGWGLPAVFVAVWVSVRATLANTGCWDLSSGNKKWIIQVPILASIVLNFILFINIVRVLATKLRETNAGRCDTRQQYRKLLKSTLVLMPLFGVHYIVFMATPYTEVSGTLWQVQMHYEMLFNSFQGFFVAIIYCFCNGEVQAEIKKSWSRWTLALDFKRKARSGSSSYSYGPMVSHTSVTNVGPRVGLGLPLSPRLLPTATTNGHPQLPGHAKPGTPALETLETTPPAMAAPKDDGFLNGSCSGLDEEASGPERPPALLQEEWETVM
Format: cell-based

SMILES | cAMP production activity (%)
Cc1cc(C(=O)N(C)C)ccc1CCS(=O)(=O)N1CCC2(CC1)N=C(C1CCCC1)NC2=O [Compound 77, 4-[2-(2-cyclopentyl-4-oxo-1,3,8-triaza-spiro[4.5]dec-1-ene-8-sulfonyl)-ethyl]-3,N,N-trimethyl-benzamide] | 69%
Cc1cc(NC[C@H](O)CO)ccc1CCS(=O)(=O)N1CCC2(CC1)N=C(c1ccc(Cl)cc1)NC2=O [Compound 158, 2-(4-chloro-phenyl)-8-{2-[4-((S)-2,3-dihydroxy-propylamino)-2-methyl-phenyl]-ethanesulfonyl}-1,3,8-triaza-spiro[4.5]dec-1-en-4-one] | 62%
CC(=O)Nc1ccc(CCS(=O)(=O)N2CCC3(CC2)N=C([C@H]2CC[C@@H](CCF)CC2)NC3=O)c(C)c1 [Compound 1072, N-[4-(2-{2-[4-(2-fluoro-ethyl)-cyclohexyl]-4-oxo-1,3,8-triaza-spiro[4.5]dec-1-ene-8-sulfonyl}-ethyl)-3-methyl-phenyl]-acetamide] | 54%
Cc1cc(C(=O)N(C)C)ccc1CCS(=O)(=O)N1CCC2(CC1)N=C(CCc1ccccc1)NC2=O [Compound 101, 3,N,N-trimethyl-4-[2-(4-oxo-2-phenethyl-1,3,8-triaza-spiro[4.5]dec-1-ene-8-sulfonyl)-ethyl]-benzamide] | 49%
Cc1cc(N2C(=O)N(C)C(C)(C)C2=O)cc(C)c1/C=C/S(=O)(=O)N1CCC2(CC1)N=C(C1CCC(C)CC1)NC2=O (stereo not drawn) [Compound 508, 3-(3,5-dimethyl-4-{(E)-2-[2-(4-methyl-cyclohexyl)-4-oxo-1,3,8-triaza-spiro[4.5]dec-1-ene-8-sulfonyl]-vinyl}-phenyl)-1,5,5-trimethyl-imidazolidine-2,4-dione] | 24%
Cc1cc(/C=C/S(=O)(=O)N2CCC3(CC2)N=C(C2CCC(C)CC2)NC3=O)cc(C)c1N1C(=O)CNC1=O (stereo not drawn) [Compound 583, 3-(2,6-dimethyl-4-{(E)-2-[2-(4-methyl-cyclohexyl)-4-oxo-1,3,8-triaza-spiro[4.5]dec-1-ene-8-sulfonyl]-vinyl}-phenyl)-imidazolidine-2,4-dione] | 85%
Cc1cc(N(C)C(N)=O)cc(C)c1CCS(=O)(=O)N1CCC2(CC1)N=C(CCCCCC(F)(F)C(F)(F)F)NC2=O [Compound 1043, 1-(3,5-Dimethyl-4-{2-[4-oxo-2-(6,6,7,7,7-pentafluoro-heptyl)-1,3,8-triaza-spiro[4.5]dec-1-ene-8-sulfonyl]-ethyl}-phenyl)-1-methyl-urea] | 99%
[2H]C([2H])([2H])C([2H])([2H])C([2H])([2H])C([2H])([2H])Oc1cc(C2=NC3(CCN(S(=O)(=O)/C=C/c4c(C)cc(C(=O)N5CCC(C)(O)CC5)cc4C)CC3)C(=O)N2)ccc1Cl [Compound 1231, 2-(3-[1,1,2,2,3,3,4,4,4-^2H9]butoxy-4-chloro-phenyl)-8-{(E)-2-[4-(4-hydroxy-4-methyl-piperidine-1-carbonyl)-2,6-dimethyl-phenyl]-ethenesulfonyl}-1,3,8-triaza-spiro[4.5]dec-1-en-4-one] | 88%
Cc1cc(C(=O)N2CCC(C)(O)CC2)cc(C)c1/C=C/S(=O)(=O)N1CCC2(CC1)N=C(c1ccc(OCCCC(F)(F)F)c(C(F)(F)F)c1)NC2=O [Compound 1204, 8-{(E)-2-[4-(4-hydroxy-4-methyl-piperidine-1-carbonyl)-2,6-dimethyl-phenyl]-ethenesulfonyl}-2-[4-(4,4,4-trifluoro-butoxy)-3-trifluoromethyl-phenyl]-1,3,8-triaza-spiro[4.5]dec-1-en-4-one] | 83%
[2H]C([2H])([2H])C([2H])([2H])C([2H])([2H])C([2H])([2H])Oc1cc(C2=NC3(CCN(S(=O)(=O)/C=C/c4c(C)cc(C(=O)N5CCC(C)(O)CC5)cc4C)CC3)C(=O)N2)ccc1F [Compound 1211, 2-(3-[1,1,2,2,3,3,4,4,4-^2H9]butoxy-4-fluoro-phenyl)-8-{(E)-2-[4-(4-hydroxy-4-methyl-piperidine-1-carbonyl)-2,6-dimethyl-phenyl]-ethenesulfonyl}-1,3,8-triaza-spiro[4.5]dec-1-en-4-one] | 99%
CC(=O)Nc1ccc(CCS(=O)(=O)N2CCC3(CC2)N=C([C@H]2CC[C@H](CC(F)(F)F)CC2)NC3=O)c(C)c1 [Compound 922, N-[3-methyl-4-(2-{4-oxo-2-[4-(2,2,2-trifluoro-ethyl)-cyclohexyl]-1,3,8-triaza-spiro[4.5]dec-1-ene-8-sulfonyl}-ethyl)-phenyl]-acetamide] | 84%

Second part, the compound after the results:

cAMP production activity (%) | SMILES
71% | O=C1NC(C2CCC(CCC(F)(F)F)CC2)=NC12CCN(S(=O)(=O)CCc1cccc3c1ccn3C[C@@H](O)CO)CC2 (stereo partly drawn) [Compound 867, 8-{2-[1-((R)-2,3-dihydroxy-propyl)-1H-indol-4-yl]-ethanesulfonyl}-2-[4-(3,3,3-trifluoro-propyl)-cyclohexyl]-1,3,8-triaza-spiro[4.5]dec-1-en-4-one]
15% | Cc1cc2cc(C)c1CCS(=O)(=O)N1CCC3(CC1)N=C(CCCC/C=C/CCCCC(=O)N2C)NC3=O [Compound 1447]
159% | Cc1cc(N(C)C(N)=O)cc(C)c1CCS(=O)(=O)N1CCC2(CC1)N=C(c1cccc(SC(F)(F)F)c1)NC2=O [Compound 1306, 1-(3,5-dimethyl-4-{2-[4-oxo-2-(3-trifluoromethylsulfanyl-phenyl)-1,3,8-triaza-spiro[4.5]dec-1-ene-8-sulfonyl]-ethyl}-phenyl)-1-methyl-urea]
74% | Cc1cc(C(=O)N2CCN(C(C)C)CC2)ccc1CCS(=O)(=O)N1CCC2(CC1)N=C(c1cccc(C(F)(F)F)c1)NC2=O [Compound 376, 8-{2-[4-(4-isopropyl-piperazine-1-carbonyl)-2-methyl-phenyl]-ethanesulfonyl}-2-(3-trifluoromethyl-phenyl)-1,3,8-triaza-spiro[4.5]dec-1-en-4-one]
59% | CC(=O)Nc1ccc(CCS(=O)(=O)N2CCC3(CC2)N=C([C@H]2CC[C@H](/C=C/C(F)F)CC2)NC3=O)c(C)c1 [Compound 916, N-[4-(2-{2-[4-((E)-3,3-difluoro-propenyl)-cyclohexyl]-4-oxo-1,3,8-triaza-spiro[4.5]dec-1-ene-8-sulfonyl}-ethyl)-3-methyl-phenyl]-acetamide]
67% | CC(C)(C)OC(=O)NCc1ccc(CCS(=O)(=O)N2CCC3(CC2)N=C(C2CCCCC2)NC3=O)c(C(F)(F)F)c1 [Compound 272, {4-[2-(2-cyclohexyl-4-oxo-1,3,8-triaza-spiro[4.5]dec-1-ene-8-sulfonyl)-ethyl]-3-trifluoromethyl-benzyl}-carbamic acid tert-butyl ester]
73% | Cc1cc(N2CCCCC2=O)cc(C)c1/C=C/S(=O)(=O)N1CCC2(CC1)N=C(C1CCC(C)CC1)NC2=O (stereo not drawn) [Compound 516, 8-{(E)-2-[2,6-dimethyl-4-(2-oxo-piperidin-1-yl)-phenyl]-ethenesulfonyl}-2-(4-methyl-cyclohexyl)-1,3,8-triaza-spiro[4.5]dec-1-en-4-one]
70% | CC(=O)Nc1ccc(CCS(=O)(=O)N2CCC3(CC2)N=C(C2CCC(c4ccc(Cl)cc4)CC2)NC3=O)c(C)c1 (stereo not drawn) [Compound 920, N-[4-(2-{2-[4-(4-Chloro-phenyl)-cyclohexyl]-4-oxo-1,3,8-triaza-spiro[4.5]dec-1-ene-8-sulfonyl}-ethyl)-3-methyl-phenyl]-acetamide]
67% | CC1CCC(C2=NC3(CCN(S(=O)(=O)CCCc4cccc5[nH]ccc45)CC3)C(=O)N2)CC1 (stereo not drawn) [Compound 311, 8-[3-(1H-indol-4-yl)-propane-1-sulfonyl]-2-(4-methyl-cyclohexyl)-1,3,8-triaza-spiro[4.5]dec-1-en-4-one]
37% | O=C1NC(C2CCCCC2)=NC12CCN(S(=O)(=O)/C=C/c1cccc(F)c1F)CC2 [Compound 184, 2-cyclohexyl-8-[(E)-2-(2,3-difluoro-phenyl)-ethenesulfonyl]-1,3,8-triaza-spiro[4.5]dec-1-en-4-one]
50% | Cc1cc(CN2C(=O)CCC2=O)cc(C)c1/C=C/S(=O)(=O)N1CCC2(CC1)N=C(C1CCC(CCC(F)(F)F)CC1)NC2=O (stereo not drawn) [Compound 557, 1-[3,5-dimethyl-4-((E)-2-{4-oxo-2-[4-(3,3,3-trifluoro-propyl)-cyclohexyl]-1,3,8-triaza-spiro[4.5]dec-1-ene-8-sulfonyl}-vinyl)-benzyl]-pyrrolidine-2,5-dione]
85% | Cc1cc(N(C)C(N)=O)cc(C)c1/C=C/S(=O)(=O)N1CCC2(CC1)N=C(CCCCCCCCCCCC(N)=O)NC2=O [Compound 1173, 12-(8-{(E)-2-[2,6-dimethyl-4-(1-methyl-ureido)-phenyl]-ethenesulfonyl}-4-oxo-1,3,8-triaza-spiro[4.5]dec-1-en-2-yl)-dodecanoic acid amide]
84% | CC(=O)N(C)Cc1cc(C)c(CCS(=O)(=O)N2CCC3(CC2)N=C(C2CCC(CCC(F)(F)F)CC2)NC3=O)c(C)c1 (stereo not drawn) [Compound 784, N-[3,5-dimethyl-4-(2-{4-oxo-2-[4-(3,3,3-trifluoro-propyl)-cyclohexyl]-1,3,8-triaza-spiro[4.5]dec-1-ene-8-sulfonyl}-ethyl)-benzyl]-N-methyl-acetamide]
